# Measurements as given in article PMC4718940, “Preclinical studies of 5-fluoro-2′-deoxycytidine and tetrahydrouridine in pediatric brain tumors” (Journal of Neuro-Oncology, 2015).
# Read-outs that look alike come from different tables or passages of the source.
# Key:
# Assay type in all cases: cell-based
# [1] = test system: mouse CPC neurospheres (CPC300); experiment: 72 h dose response, CellTiter-Glo, mouse CPC neurospheres; settings: 72 hr treatment, 384-well; for EC50: read-out: CPC300 EC50
# Experimental: (§1) In the Discovery Phase, the initial studies included the screen of a library of 9 compounds against epigenetic regulators at a single concentration and a dose-response on G3 MB, EP, and CPC tumor cells, as well as HEPG2 and BJ (Fig. 1). The library and dose response studies are described in the Supplementary Material.
# (§2) Briefly, cells (see Supplementary Table S2 for cell identity) were plated in 384-well plates (Corning) in 30 µL of supplemented neurobasal medium by using an automated plate filler (Wellmate, Matrix). After 24 hr, 28 nL of compound was transferred via pin tool, resulting in a final drug concentration of approximately 4 nM to 10 µM. After 72 hr of treatment, CellTiter-Glo reagent (Promega) was added, and the luminescence signal was measured using an automated Envision plate reader (Perkin-Elmer). Luminescence data were normalized by log10-transformation prior to calculating the percentage of inhibition using the following equation: 100 × (negative control mean − compound value)/(negative control mean − positive control mean). Our negative control represents cells treated with 0.1% DMSO with 0% inhibition. Cells treated with 35 µM cycloheximide (G3 MB tumor spheres) or 10 µM panobinostat (EP and CPC cells) were used as positive controls with 100% inhibition. The response of cells to the compounds were normalized to that of the positive controls present in each plate screened, shown in the Y axis of the dose-response curve. […] Unless otherwise reported, the y-axis for each dose response curve in the figures was independently normalized to the range from 0 to 1 and therefore reported as ‘relative growth inhibition’. High through put assay data were analyzed by using our in-house Robust Interpretation of Screening Experiments (RISE) application that was written in Pipeline Pilot (Accelrys, v. 8.5) and R (R Development Core Team).
# [2] = test system: Mouse G3 MB Myc1 neurospheres; experiment: 72 h dose response, CellTiter-Glo, mouse G3 MB neurospheres; settings: 72 hr treatment, 384-well; for EC50: read-out: G3-MB EC50
# Experimental: as §1, §2
# [3] = test system: mouse EP neurospheres; experiment: 72 h dose response, CellTiter-Glo, mouse EP neurospheres; settings: 72 hr treatment, 384-well; for EC50: read-out: EP EC50
# Experimental: as §1, §2
Compound,EC50 [1] [nM],EC50 [2] [nM],EC50 [3] [nM],G3-MB EC50 [2],EC50 ([1]; Mus musculus) [nM],EC50 ([3]; Mus musculus) [nM],also measured
CCNC(=O)C[C@@H]1N=C(c2ccc(Cl)cc2)c2cc(OC)ccc2-n2c(C)nnc21 [I-BET],> 5500,900,4100,–,–,–,–
"O=C(CCCCCCC(=O)Nc1ccccc1)NO [SAHA (Vorinostat), Vorinostat]",–,–,–,Inactive,–,–,–
Nc1ncn([C@@H]2O[C@H](CO)[C@@H](O)[C@H]2O)c(=O)n1 [5-Azacytidine],–,–,–,Inactive,1080,5300,–
Nc1nccc2c1ncn2C1C=C(CO)C(O)C1O (stereo not shown) [3-Deazaneplanocin A],–,–,–,–,310,110,EC50 ([2]; Mus musculus): 360 nM
Nc1ncn([C@H]2C[C@H](O)[C@@H](CO)O2)c(=O)n1 [Decitabine],–,–,–,–,6700,500,EC50 ([2]; Mus musculus): 960 nM
Cc1sc2c(c1C)C(c1ccc(Cl)cc1)=N[C@@H](CC(=O)OC(C)(C)C)c1nnc(C)n1-2 [JQ1],> 5600,700,1700,–,–,–,–
CC(/C=C/C(=O)NO)=C\[C@@H](C)C(=O)c1ccc(N(C)C)cc1 [Trichostatin A],2100,100,400,–,–,–,–
"O=c1ncccn1[C@@H]1O[C@H](CO)[C@@H](O)[C@H]1O [Zebularin, Zebularine]",–,–,–,Inactive,–,–,CPC300 EC50 [1]: Inactive; EP EC50 [3]: Inactive
